The values that follow come from patent US20050153937A1, “Desensitization of compliment activation using monocyte/macrophage inhibitory compounds” (priority 2003, published 2005).

This data set relates to complement activation-related acute hypersensitivity (CARPA). To be noted: pig, in vivo.

Some results are limits rather than exact numbers.

Description: Adolescent (2040 kg) Yorkshire pigs of both genders are sedated with i.m. ketamine (Ketalar) and then anesthetized with halothane or isoflurane via nose cone. The trachea is intubated to allow mechanical ventilation with an anesthesia machine, using 1-2.5% halothane or isoflurane. A pulmonary artery catheter equipped with thermodilution-based continuous cardiac output detector is advanced via the right internal jugular vein through the right atrium into the pulmonary artery to measure pulmonary arterial pressure (PAP) and cardiac output (CO). Another catheter is inserted into the right femoral artery and advanced into the proximal aorta for blood sampling and to measure systemic arterial pressure (SAP). Blood pressure values and 2-3 leads of the electrocardiogram (ECG) are obtained continually.
The CARPA-activating compounds used in the following experiments are i) Doxil containing 2 mg/ml doxorubicin HCl and 16 mg/ml lipid (phospholipid concentration: 13.3 mM, 150 μg doxorubicin/μmol phospholipid), ii) multilamellar vesicles (MLV) consisting of dimyristoyl phosphatidylcholine (DMPC), dimyristoyl phosphatidylglycerol (DMPG), and cholesterol at a 45:5:50 ratio, and iii) zymosan. […]

In the case of Zymosan, the “reactions to second series of CARPA-activator injections compared with first administration” value was “substantially identical”. Besides, for the setting “iv”, the “time until all physiologic and blood measures return to baseline after injection” value is at most 30 min.
